The ED50 is the dose that gives a 50% effect, or the effect in half of the subjects. A high value points to weaker potency.

The text below walks through data of patent publication US4282248A, “Pinene derivatives and pharmaceutical compositions containing the same” (priority 1978, dated 1981).

What all share (assay type): in vivo
The nature of test [1]: acetic acid induced writhing test (mouse writhing). Particulars: for ED50: Mus musculus. As for the experimental part:
(§1) The analgetic activity was tested by the acetic acid induced writhing test (Sofia et al., J. Pharmacol.Expt.Therap. 18, 646, 1973), by the tail flick test (Grotto et al., Arch Intern.Pharmacodyn. 170, 257, 1967) and by the foot pressure test (Randall and Selito, Arch, Int. Pharmacodyn. 409, 1957). The central nervous system action was tested by the mouse ring test (Pertwee, Brit. J. Pharmacol. 46, 753, 1972).
On the technique in general: In writhing tests, fewer writhes than in controls are read as antinociception.

Test [2] in a line: tail flick test (mouse tail flick). Particulars: for ED50: Mus musculus. The protocol:
as §1
Background: Thermal pain tests record how soon the animal reacts.

Test [3] can be described thus: foot pressure test (rat foot pressure). The note with it: for ED50: Rattus norvegicus. The protocol:
as §1

Bounds are passed on as bounds.

`CCCCCCC(C)(C)c1cc(OC(C)=O)c(C2C=C(COC(C)=O)C3CC2C3(C)C)c(OC(C)=O)c1` (single isomer, unassigned) [VIIIa(+), 4-Trans-[2-(5-(1,1-dimethylheptyl)-resorcyl)]-10-hydroxy-pin-2-ene triacetate]: the figures for the ED50 in test [1], in test [2] and in test [3] were 18 mg/kg, 50 mg/kg and 50 mg/kg, respectively.
On to `CCCCCCC(C)(C)c1cc(OC(C)=O)c(C2C=C(COC(C)=O)C3CC2C3(C)C)c(OC(C)=O)c1` (single isomer, unassigned) [VIIIa(-), 4-trans-[2-(5-(1,1-dimethylheptyl)-resorcyl)]-10-hydroxy-pin-2-ene, triacetate], for which the “Mouse writhing ED50” value in test [1] was found to be 18 mg/kg. Also, in test [2], the “Mouse tail flick ED50” value is given as 30 mg/kg. The “Rat foot pressure ED50” value in test [3] worked out at 50 mg/kg.
Turning to `CCCCCC(C)C(C)c1cc(OC(C)=O)c(C2C=C(COC(C)=O)C3CC2C3(C)C)c(OC(C)=O)c1` (single isomer, unassigned) [VIIIb(+), 4-Trans-[2-(5-(1,2-dimethylheptyl-resorcyl)]-10-hydroxy-pin-2-ene, triacetate], the results for the median effective dose (ED50) in test [1], in test [2] and in test [3] were 10 mg/kg, 50 mg/kg and 50 mg/kg, respectively.
As to `CCCCCC(C)C(C)c1cc(OC(C)=O)c(C2C=C(COC(C)=O)C3CC2C3(C)C)c(OC(C)=O)c1` (single isomer, unassigned) [VIIIb(-), 4-trans-[2-(5-(1,2-dimethylpheptyl)]-resorcyl)-10-hydroxy-pin-2-ene, triacetate], in test [1], the “Mouse writhing ED50” value is on record as 10 mg/kg. In addition, the “Mouse tail flick ED50” value in test [2] is 30 mg/kg. Also, the “Rat foot pressure ED50” value in test [3] is reported as 50 mg/kg.
As to `CCCCCCC(C)(C)c1cc(OC(C)=O)c(C2C=C(COC(=O)C(C)(C)C)C3CC2C3(C)C)c(OC(C)=O)c1` (single isomer, unassigned) [VIIIc(+)], the ED50 was 25 mg/kg in test [1], above 50 mg/kg in test [2] and above 50 mg/kg in test [3].
In the case of `CCCCCCC(C)(C)c1cc(OC(C)=O)c(C2C=C(COC(=O)C(C)(C)C)C3CC2C3(C)C)c(OC(C)=O)c1` (single isomer, unassigned) [VIIIc(-)], the “Mouse writhing ED50” value in test [1] was 25 mg/kg. Also, the “Mouse tail flick ED50” value in test [2] was above 50 mg/kg. For the same molecule, the “Rat foot pressure ED50” value in test [3] is above 50 mg/kg.
With `CCCCCC(C)C(C)c1cc(OC(C)=O)c(C2C=C(COC(=O)C(C)(C)C)C3CC2C3(C)C)c(OC(C)=O)c1` (single isomer, unassigned) [VIIId(+), 4-trans-[2-(5-(1,2-dimethylheptyl)-resorcyl diacetate)]-10-hydroxy-pin-2-ene-10-pivalate], the figures for the 50% effective dose (ED50) in test [1], in test [2] and in test [3] were 25 mg/kg, above 50 mg/kg and above 50 mg/kg, respectively.
As for `CCCCCC(C)C(C)c1cc(OC(C)=O)c(C2C=C(COC(=O)C(C)(C)C)C3CC2C3(C)C)c(OC(C)=O)c1` (single isomer, unassigned) [VIIId(-), 4-trans-[2-(5-(1,2-dimethylheptyl)-resorcyl diacetate)]-10-hydroxy-pin-2-ene-10-pivalate], the “Mouse writhing ED50” value in test [1] was found to be 25 mg/kg. For the same molecule, the “Mouse tail flick ED50” value in test [2] is given as above 50 mg/kg. Moreover, in test [3], the “Rat foot pressure ED50” value is above 50 mg/kg.
Take `CCCCCCC(C)(C)c1cc(O)c(C2C=C(CO)C3CC2C3(C)C)c(O)c1` (single isomer, unassigned) [VIIa(+), 4-Trans-[2-(5-(1,1-dimethylheptyl)-resorcyl)]-10-hydroxy-pin-2-ene]: the ED50 turned out to be 5 mg/kg in test [1] and 15 mg/kg in test [3]. The “Mouse tail flick ED50” value in test [2] turned out to be 30 mg/kg.
Take `CCCCCCC(C)(C)c1cc(O)c(C2C=C(CO)C3CC2C3(C)C)c(O)c1` (single isomer, unassigned) [VIIa(-), 4-trans-[2-(5-(1,1-dimethylheptyl)-resorcyl)]-10-hydroxy-pin-2-ene]: the “Mouse writhing ED50” value in test [1] is recorded as 7 mg/kg. The “Mouse tail flick ED50” value in test [2] is 6 mg/kg. The “Rat foot pressure ED50” value in test [3] turned out to be 25 mg/kg.
Regarding `CCCCCC(C)C(C)c1cc(O)c(C2C=C(CO)C3CC2C3(C)C)c(O)c1` (single isomer, unassigned) [VIIb(+), 4-Trans[2-(5-(1,2-dimethylheptyl)-resorcyl)]-10-hydroxy-pin-2-ene], the ED50 in test [1] amounted to 5 mg/kg; in test [3], 15 mg/kg. Further, the “Mouse tail flick ED50” value in test [2] worked out at 30 mg/kg.
Regarding `CCCCCC(C)C(C)c1cc(O)c(C2C=C(CO)C3CC2C3(C)C)c(O)c1` (single isomer, unassigned) [VIIb(-), 4-Trans-[2-(5-(1,2-dimethyheptyl)-resorcyl)]-10-hydroxy-pin-2-ene], in test [1], the “Mouse writhing ED50” value turned out to be 7 mg/kg. For the same molecule, in test [2], the “Mouse tail flick ED50” value is 6 mg/kg. In addition, the “Rat foot pressure ED50” value in test [3] is given as 25 mg/kg.
Take `CCCCCCC(C)(C)c1cc(O)c(C2C=C(COC(C)=O)C3CC2C3(C)C)c(O)c1` (single isomer, unassigned) [VIa(+)]: the 50% effective dose (ED50) worked out at 10 mg/kg in test [1] and 35 mg/kg in test [3]. In addition, the “Mouse tail flick ED50” value in test [2] came out at 30 mg/kg.
`CCCCCCC(C)(C)c1cc(O)c(C2C=C(COC(C)=O)C3CC2C3(C)C)c(O)c1` (single isomer, unassigned) [VIa(-)]: in test [1], the “Mouse writhing ED50” value stood at 10 mg/kg. For the same molecule, the “Mouse tail flick ED50” value in test [2] is 10 mg/kg. Besides, in test [3], the “Rat foot pressure ED50” value turned out to be 25 mg/kg.
Consider `CCCCCC(C)C(C)c1cc(O)c(C2C=C(COC(C)=O)C3CC2C3(C)C)c(O)c1` (single isomer, unassigned) [VIb(+)], for which the 50% effective dose (ED50) amounted to 10 mg/kg in test [1] and 35 mg/kg in test [3]. For the same molecule, the “Mouse tail flick ED50” value in test [2] is given as 30 mg/kg.
Consider `CCCCCC(C)C(C)c1cc(O)c(C2C=C(COC(C)=O)C3CC2C3(C)C)c(O)c1` (single isomer, unassigned) [VIb(-)], for which the “Mouse writhing ED50” value in test [1] amounted to 10 mg/kg. Moreover, the “Mouse tail flick ED50” value in test [2] was 10 mg/kg. Besides, in test [3], the “Rat foot pressure ED50” value stood at 25 mg/kg.
On to `CCCCCCC(C)(C)c1cc(O)c(C2C=C(COC(=O)C(C)(C)C)C3CC2C3(C)C)c(O)c1` (single isomer, unassigned) [VIc(+)], for which the figures for the 50% effective dose (ED50) in test [1] and in test [3] were 10 mg/kg and 30 mg/kg, respectively.
In the case of `CCCCCCC(C)(C)c1cc(O)c(C2C=C(COC(=O)C(C)(C)C)C3CC2C3(C)C)c(O)c1` (single isomer, unassigned) [VIc(-)], in test [1], the “Mouse writhing ED50” value was below 10 mg/kg. In addition, in test [2], the “Mouse tail flick ED50” value is 10 mg/kg. For the same molecule, the “Rat foot pressure ED50” value in test [3] is 30 mg/kg.
With `CCCCCC(C)C(C)c1cc(O)c(C2C=C(COC(=O)C(C)(C)C)C3CC2C3(C)C)c(O)c1` (single isomer, unassigned) [VId(+), 4-trans-[2-(5-(1,2-dimethylheptyl)-resorcyl)]-10-hydroxy-pin-2-ene, 10 pivalate], the figures for the ED50 in test [1] and in test [3] were 10 mg/kg and 30 mg/kg, respectively.
For the molecule `CCCCCC(C)C(C)c1cc(O)c(C2C=C(COC(=O)C(C)(C)C)C3CC2C3(C)C)c(O)c1` (single isomer, unassigned) [VId(-), 4-trans-[2-(5-(1,2-dimethylheptyl)-resorcyl)]-10-hydroxy-pin-2-ene, 10 pivalate], in test [1], the “Mouse writhing ED50” value is below 10 mg/kg. In addition, in test [2], the “Mouse tail flick ED50” value amounted to 10 mg/kg. The “Rat foot pressure ED50” value in test [3] worked out at 30 mg/kg.
`CCCCCC(C)C(C)c1cc(O)c(C2CC(C)C3CC2C3(C)C)c(O)c1` (single isomer, unassigned) [Xb(-), 4-Trans-[-(5-(1,2-dimethylheptyl)-resorcyl)]-pinane]: the figures for the ED50 in test [1], in test [2] and in test [3] were 6 mg/kg, around 50 mg/kg and around 50 mg/kg, respectively.
`CCCCCCC(C)(C)c1cc(O)c(C2CC(C)C3CC2C3(C)C)c(O)c1` (stereo not drawn) [Xa(+), 4-Trans-[2-(5-(1,1-dimethylheptyl)-resorcyl)]-pinane]: the “Mouse writhing ED50” value in test [1] was determined as 15 mg/kg. The “Mouse tail flick ED50” value in test [2] is ~ 50 mg/kg. For the same molecule, in test [3], the “Rat foot pressure ED50” value is on record as ~ 50 mg/kg.
As for `CCCCCCC(C)(C)c1cc(O)c(C2CC(C)C3CC2C3(C)C)c(O)c1` (stereo not drawn) [Xa(-), 4-trans-[2-(5-(1,1-dimethylheptyl)-resorcyl)]-pinane], the “Mouse writhing ED50” value in test [1] turned out to be 9 mg/kg. Further, in test [2], the “Mouse tail flick ED50” value is ~ 50 mg/kg. In addition, in test [3], the “Rat foot pressure ED50” value was ~ 50 mg/kg.
In the case of `CCCCCC(C)C(C)c1cc(O)c(C2CC(C)C3CC2C3(C)C)c(O)c1` (stereo not drawn) [Xb(+), 4-Trans-[-(5-(1,2-dimethylheptyl)-resorcyl)]-pinane], the “Mouse writhing ED50” value in test [1] stood at 6 mg/kg. Moreover, the “Mouse tail flick ED50” value in test [2] is reported as ~ 50 mg/kg. In test [3], the “Rat foot pressure ED50” value is given as ~ 50 mg/kg.
